In brackets after ≈: the same amount, converted by molar mass. Where two headings read alike, the source gives them in different places.
Assays:
Assay type in all cases: cell-based
[1] = system: Fusarium moniliforme (Fm); assay: In vitro pathogen growth inhibition assay, Fm; settings: Fusarium verticillioides
Method in brief: (§1)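 Value reported is the compound concentration reaching ≥90% growth inhibition, from OD readings at 24 and 48 h after blank subtraction, confirmed visually. Inoculum was spores diluted in 17% V8 medium, except Rs, using 1.5 mm mycelial plugs in ¼ PDB; actual compound concentration corrected via OD600.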

[2] = system: Collectotrichum graminicola (Cg); assay: In vitro pathogen growth inhibition assay, Cg; settings: 48 h
Method in brief: as §1

Botrtyis cinerea (Bc) = assay: In vitro pathogen growth inhibition assay, Bc; settings: 48 h
Method in brief: as §1

Rhizoctonia solani (Rs) = assay: In vitro pathogen growth inhibition assay, Rs (mycelial plugs); settings: Rhizoctonia solani, 48 h, mycelial plugs
Method in brief: (§2)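 Spores of Dm, Fv and Pc were diluted in 17% V8 liquid medium; Rs used 1.5 mm mycelial plugs in ¼ PDB. Compounds from 2.5 mg/ml DMSO stocks were combined with inoculum, growth was read by OD600 at 24 and 48 h with blank subtraction, and the reported value is the concentration giving ≥90% inhibition.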

[3] = system: Fusarium virguliforme (Fv); assay: In vitro pathogen growth inhibition assay, Fv
Method in brief: as §2

Septoria tritici (St) = assay: In vitro pathogen growth inhibition assay, St; settings: Zymoseptoria tritici, 48 h
Method in brief: as §1

Diplodia maydis (Dm) = assay: In vitro pathogen growth inhibition assay, Dm; settings: Stenocarpella maydis, 48 h
Method in brief: as §2

[4] = system: Phytophthora capsici (Pc); assay: In vitro pathogen growth inhibition assay, Pc; settings: 48 h
Method in brief: as §2

[5] = ≥90% growth inhibition, 48 hours, vs 2% DMSO control, read-out: Compound Concentration (ppm) sufficient for ≥90% inhibition of Fm
[6] = ≥90% growth inhibition, 48 hours, vs 2% DMSO control, read-out: Compound Concentration (ppm) sufficient for ≥90% inhibition of Cg
[7] = ≥90% growth inhibition, 48 hours, vs 2% DMSO control, read-out: Compound Concentration (ppm) sufficient for ≥90% inhibition of Bc
[8] = ≥90% growth inhibition, 48 hours, vs 2% DMSO control, read-out: Compound Concentration (ppm) sufficient for ≥90% inhibition of Rs
[9] = ≥90% growth inhibition, 48 hours, vs 2% DMSO control, read-out: Compound Concentration (ppm) sufficient for ≥90% inhibition of Fv
[10] = ≥90% growth inhibition, 48 hours, vs 2% DMSO control, read-out: Compound Concentration (ppm) sufficient for ≥90% inhibition of St
[11] = ≥90% growth inhibition, 48 hours, vs 2% DMSO control, read-out: Compound Concentration (ppm) sufficient for ≥90% inhibition of Dm
[12] = ≥90% growth inhibition, 48 hours, vs 2% DMSO control, read-out: Compound Concentration (ppm) sufficient for ≥90% inhibition of Pc
[13] = ≥90% inhibition, 48 hours vs 2% DMSO control, read-out: Compound Concentration (ppm) sufficient for ≥90% inhibition of growth, Fm
[14] = ≥90% inhibition, 48 hours vs 2% DMSO control, read-out: Compound Concentration (ppm) sufficient for ≥90% inhibition of growth, Cg
[15] = ≥90% inhibition, 48 hours vs 2% DMSO control, read-out: Compound Concentration (ppm) sufficient for ≥90% inhibition of growth, Bc
[16] = ≥90% inhibition, 48 hours vs 2% DMSO control, read-out: Compound Concentration (ppm) sufficient for ≥90% inhibition of growth, Rs
[17] = ≥90% inhibition, 48 hours vs 2% DMSO control, read-out: Compound Concentration (ppm) sufficient for ≥90% inhibition of growth, Fv
[18] = ≥90% inhibition, 48 hours vs 2% DMSO control, read-out: Compound Concentration (ppm) sufficient for ≥90% inhibition of growth, St
[19] = ≥90% inhibition, 48 hours vs 2% DMSO control, read-out: Compound Concentration (ppm) sufficient for ≥90% inhibition of growth, Dm
[20] = ≥90% inhibition, 48 hours vs 2% DMSO control, read-out: Compound Concentration (ppm) sufficient for ≥90% inhibition of growth, Pc

Compound	IC90 [1, 5] [µg/mL]	IC90 [2, 6] [µg/mL]	IC90 (Botrtyis cinerea (Bc); [7]) [µg/mL]	IC90 (Rhizoctonia solani (Rs); [8]) [µg/mL]	IC90 [3, 9] [µg/mL]	IC90 (Septoria tritici (St); [10]) [µg/mL]	IC90 (Diplodia maydis (Dm); [11]) [µg/mL]	IC90 [4, 12] [µg/mL]	IC90 [1, 13] [µg/mL]	IC90 [2, 14] [µg/mL]	IC90 (Botrtyis cinerea (Bc); [15]) [µg/mL]	IC90 (Rhizoctonia solani (Rs); [16]) [µg/mL]	IC90 [3, 17] [µg/mL]	IC90 (Septoria tritici (St); [18]) [µg/mL]	IC90 (Diplodia maydis (Dm); [19]) [µg/mL]	IC90 [4, 20] [µg/mL]
CCNC(=O)C(C)(C)n1c(=O)c2c(C)c(-n3cccn3)sc2n(C[C@H](OCCC#N)c2ccccc2OC)c1=O [Compound I-232]	2 (≈ 3.54 µM)	10 (≈ 17.7 µM)	10 (≈ 17.7 µM)	2 (≈ 3.54 µM)	0.4 (≈ 0.708 µM)	> 50	50 (≈ 88.5 µM)	> 50	–	–	–	–	–	–	–	–
COc1ccc(F)cc1[C@H](Cn1c(=O)n(CC(=O)NC(C)C)c(=O)c2c(C)c(-n3nccn3)sc21)OCCO [Compound I-087]	–	–	–	–	–	–	–	–	0.08 (≈ 0.143 µM)	2 (≈ 3.57 µM)	2 (≈ 3.57 µM)	2 (≈ 3.57 µM)	2 (≈ 3.57 µM)	> 50	> 50	> 50
CCc1ccc(F)cc1[C@H](Cn1c(=O)n(C(C)(C)C(=O)NC(C)C)c(=O)c2c(C)c(-n3nccn3)sc21)OCCOC [Compound I-247]	0.08 (≈ 0.133 µM)	0.4 (≈ 0.666 µM)	0.4 (≈ 0.666 µM)	2 (≈ 3.33 µM)	0.4 (≈ 0.666 µM)	≥ 10	2 (≈ 3.33 µM)	> 50	–	–	–	–	–	–	–	–
COCCO[C@@H](Cn1c(=O)n(CC(=O)N2CCCC2)c(=O)c2c(C)c(-n3nccn3)sc21)c1cc(F)ccc1OC [Compound I-141]	–	–	–	–	–	–	–	–	0.4 (≈ 0.682 µM)	≥ 2	2 (≈ 3.41 µM)	10 (≈ 17 µM)	≥ 2	> 50	2 (≈ 3.41 µM)	> 50
CCOC(=O)c1sc2c(c1C)c(=O)n([C@@H](C)C(=O)N1CCCC1)c(=O)n2C[C@H](OCCC#N)c1cc(F)ccc1OC [Compound I-225]	2 (≈ 3.33 µM)	> 50	10 (≈ 16.6 µM)	10 (≈ 16.6 µM)	≥ 50	> 50	> 10	> 50	–	–	–	–	–	–	–	–
CCOC(=O)c1sc2c(c1C)c(=O)n([C@@H](C)C(=O)NC(C)C)c(=O)n2C[C@H](OCCC#N)c1cc(F)ccc1OC [Compound I-219]	0.4 (≈ 0.68 µM)	10 (≈ 17 µM)	2 (≈ 3.4 µM)	> 50	≥ 10	> 50	> 10	> 50	–	–	–	–	–	–	–	–
CCOC(=O)c1sc2c(c1C)c(=O)n(C(C)(C)C(=O)NC(C)C)c(=O)n2C[C@H](OCC(C)(C)C#N)c1ccccc1OC [Compound I-303]	0.08 (≈ 0.131 µM)	2 (≈ 3.26 µM)	0.4 (≈ 0.653 µM)	2 (≈ 3.26 µM)	2 (≈ 3.26 µM)	> 50	≥ 2	> 50	–	–	–	–	–	–	–	–
Cc1c(-n2cccn2)sc2c1c(=O)n(C(C)(C)C(=O)NC(C)C)c(=O)n2C[C@H](OCCC#N)c1cc(F)ccc1O [Compound I-283]	2 (≈ 3.43 µM)	50 (≈ 85.8 µM)	10 (≈ 17.2 µM)	2 (≈ 3.43 µM)	10 (≈ 17.2 µM)	> 50	> 50	> 50	–	–	–	–	–	–	–	–
CCc1ccc(F)cc1[C@H](Cn1c(=O)n(C(C)(C)C(=O)NC(C)C)c(=O)c2c(C)c(-n3nccn3)sc21)O[C@H]1C[C@@H](O)C1 [Compound I-280]	0.08 (≈ 0.131 µM)	2 (≈ 3.26 µM)	2 (≈ 3.26 µM)	0.08 (≈ 0.131 µM)	0.4 (≈ 0.653 µM)	≥ 50	2 (≈ 3.26 µM)	50 (≈ 81.6 µM)	–	–	–	–	–	–	–	–
COc1ccc(F)cc1[C@H](Cn1c(=O)n(C(C)(C)C(=O)NC2CCC2)c(=O)c2c(C)c(-n3nccn3)sc21)OC1CCOCC1 [Compound I-038]	–	–	–	–	–	–	–	–	0.08 (≈ 0.125 µM)	0.4 (≈ 0.624 µM)	0.4 (≈ 0.624 µM)	0.08 (≈ 0.125 µM)	0.4 (≈ 0.624 µM)	≥ 2	0.4 (≈ 0.624 µM)	10 (≈ 15.6 µM)

From US10941157B2, “Pesticidal compositions and uses thereof” (Gilead Apollo, LLC, priority 2015, dated 2021)
